# From patent US6441006B2, “Pharmaceutical compositions and methods for use” (Targacept, Inc., priority 1998, dated 2002)
# Where “and” joins values, the source holds several entries; their conditions need not be identical. Equal entries are not always repeated.
# What was measured:
# Rat brain synaptosomes = assay: Neurotransmitter release from brain synaptosomes; format: biochemical; details: in the presence of 10 µM of ligand; percentage of release obtained with 10 µM (S)-(-)-nicotine or 300 µM TMA
# Procedure: Neurotransmitter release was measured using techniques similar to those previously published (Bencherif M, et al. JPET 279: 1413-1421, 1996).
# Rat brain synaptosomes were prepared as follows: Female Sprague Dawley rats (100-200 g) were killed by decapitation after anesthesia with 70% CO2. Brains are dissected, and hippocampus, striatum, and thalamus isolated, and homogenized in 0.32 M sucrose containing 5 mM HEPES pH 7.4 using a glass/glass homogenizer. The tissue was then centrifuged for 1000×g for 10 minutes and the pellet discarded. The supernatant was centrifuged at 12000×g for 20 minutes. The resultant pellet was re-suspended in perfusion buffer (128 mM NaCl, 1.2 mM KH2PO4, 2.4 mM KCl, 3.2 mM CaCl2, 1.2 mM MgSO4, 25 mM HEPES, 1 mM Ascorbic acid, 0.01 mM pargyline HCl and 10 mM glucose pH 7.4) and centrifuged for 15 minutes at 25000×g. The final pellet was resuspended in perfusion buffer and placed in a water bath (37° C.) for 10 minutes. Radiolabeled neurotransmitter is added (30 L^3H DA, 20 L^3H NE, 10 L^3H glutamate) to achieve a final concentration of 100 nM, vortexed and placed in a water bath for additional 10 minutes. Tissue-loaded filters is placed onto 11-mm diameter Gelman A/E filters on an open-air support. After a 10-minute wash period, fractions are collected to establish the basal release and agonist applied in the perfusion stream. Further fractions were collected after agonist application to re-establish the baseline. The perfusate was collected directly into scintillation vials and released radioactivity was quantified using conventional liquid scintillation techniques. Release of neurotransmitter was determined in the presence of […] of various ligands and was expressedas a percentage of release obtained with a concentration of 10 M (S)-(−)-nicotine or 300 MTMA resulting in maximal effects.
# CNS nicotinic receptors = target: T1, CNS nicotinic receptors (Rattus norvegicus, UniProt P09483+P12390); assay: Binding to relevant receptor sites; details: calculated from IC50 values using the method of Cheng et al.
# T1 construct: Ki
# T1 sequence (P09483 31-630): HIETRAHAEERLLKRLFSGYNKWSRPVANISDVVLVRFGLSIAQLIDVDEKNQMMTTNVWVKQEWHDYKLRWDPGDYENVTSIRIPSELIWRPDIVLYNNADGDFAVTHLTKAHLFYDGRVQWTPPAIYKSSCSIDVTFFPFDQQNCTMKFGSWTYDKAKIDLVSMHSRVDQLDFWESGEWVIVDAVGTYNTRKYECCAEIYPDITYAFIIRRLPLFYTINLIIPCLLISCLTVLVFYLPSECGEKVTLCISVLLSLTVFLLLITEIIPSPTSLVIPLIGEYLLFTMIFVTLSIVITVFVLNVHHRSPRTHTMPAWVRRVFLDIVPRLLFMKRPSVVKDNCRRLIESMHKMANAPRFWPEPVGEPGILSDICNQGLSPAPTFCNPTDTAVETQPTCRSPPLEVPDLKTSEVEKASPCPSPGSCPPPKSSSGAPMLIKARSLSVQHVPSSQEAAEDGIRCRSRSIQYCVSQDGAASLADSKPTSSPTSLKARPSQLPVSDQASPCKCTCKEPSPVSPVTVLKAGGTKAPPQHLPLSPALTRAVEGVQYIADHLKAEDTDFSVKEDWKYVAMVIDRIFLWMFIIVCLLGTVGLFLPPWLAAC
# T1 sequence (P12390 25-500): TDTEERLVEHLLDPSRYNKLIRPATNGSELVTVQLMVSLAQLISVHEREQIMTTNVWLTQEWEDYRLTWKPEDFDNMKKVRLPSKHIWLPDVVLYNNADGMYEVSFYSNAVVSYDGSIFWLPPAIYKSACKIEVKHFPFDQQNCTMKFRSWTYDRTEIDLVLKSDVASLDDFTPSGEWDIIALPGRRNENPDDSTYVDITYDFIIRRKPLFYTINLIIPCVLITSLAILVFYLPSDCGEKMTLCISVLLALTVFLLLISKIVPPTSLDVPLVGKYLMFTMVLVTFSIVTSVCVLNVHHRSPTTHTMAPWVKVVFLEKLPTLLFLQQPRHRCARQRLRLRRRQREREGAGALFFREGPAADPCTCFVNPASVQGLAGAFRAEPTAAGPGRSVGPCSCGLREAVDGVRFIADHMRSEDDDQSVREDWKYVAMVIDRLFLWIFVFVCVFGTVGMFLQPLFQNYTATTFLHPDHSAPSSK
# Procedure: Binding of the compounds to relevant receptor sites was determined in accordance with the techniques described in U.S. Pat. No. 5,597,919 to Dull et al. Inhibition constants (Ki values), reported in nM, were calculated from the IC50 values using the method of Cheng et al., Biochem, Pharmacol. 22:3099 (1973).
# [1] = test system: ganglia-type nicotinic acetylcholine receptors; assay: Interaction with ganglion receptors; format: cell-based; details: Emax, percentage of maximal activation induced by (S)-(-)-nicotine
# Procedure: (§1) The determination of the interaction of the compounds with ganglionic receptors was carried out in accordance with the techniques described in U.S. Pat. No. 5,597,919 to Dull et al. The maximal activation for individual compounds (Emax) was determined as a percentage of the maximal activation induced by (S)-(−)-nicotine. Reported Emax values represent the amount released relative to (S)-(−)-nicotine on a percentage basis. […] Such preferable compounds have the capability to activate human CNS receptors without activating ganglia-type nicotinic acetylcholine receptors. Thus, there is provided a therapeutic window for utilization in the treatment of CNS disorders. […] The compounds begin to cause effects at ganglia only when employed in amounts of many times those required to activate dopamine release.
# The determination of the interaction of the compounds with ganglionic receptors was carried out in accordance with the techniques described in U.S. Pat. No. 5,597,919 to Dull et al. The maximal activation for individual compounds (Emax) was determined as a percentage of the maximal activation induced by (S)-(−)-nicotine. Reported Emax values represent the amount released relative to (S)-(−)-nicotine on a percentage basis.
# [2] = target: T2, muscle-type nicotinic acetylcholine receptors (Homo sapiens, UniProt P02708+P07510+Q07001); assay: Interaction with muscle receptors; format: cell-based; details: Emax, percentage of maximal activation induced by (S)-(-)-nicotine
# T2 construct: endogenous in cells; host or cells: TE671/RD (own knowledge of the cited US 5,597,919)
# T2 sequence (P02708 21-457): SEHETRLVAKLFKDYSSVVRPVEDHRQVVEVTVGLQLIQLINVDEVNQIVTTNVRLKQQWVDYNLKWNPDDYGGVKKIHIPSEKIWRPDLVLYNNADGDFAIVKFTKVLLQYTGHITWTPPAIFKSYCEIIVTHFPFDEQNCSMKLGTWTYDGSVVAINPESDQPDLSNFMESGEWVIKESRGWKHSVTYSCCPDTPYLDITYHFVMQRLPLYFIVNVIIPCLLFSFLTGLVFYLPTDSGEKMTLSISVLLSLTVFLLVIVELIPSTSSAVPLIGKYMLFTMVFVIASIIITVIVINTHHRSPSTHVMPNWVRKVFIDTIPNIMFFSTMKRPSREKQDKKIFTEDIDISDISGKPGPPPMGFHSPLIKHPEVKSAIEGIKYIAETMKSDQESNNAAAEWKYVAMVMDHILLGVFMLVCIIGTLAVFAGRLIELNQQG
# T2 sequence (P11230 24-501 partner): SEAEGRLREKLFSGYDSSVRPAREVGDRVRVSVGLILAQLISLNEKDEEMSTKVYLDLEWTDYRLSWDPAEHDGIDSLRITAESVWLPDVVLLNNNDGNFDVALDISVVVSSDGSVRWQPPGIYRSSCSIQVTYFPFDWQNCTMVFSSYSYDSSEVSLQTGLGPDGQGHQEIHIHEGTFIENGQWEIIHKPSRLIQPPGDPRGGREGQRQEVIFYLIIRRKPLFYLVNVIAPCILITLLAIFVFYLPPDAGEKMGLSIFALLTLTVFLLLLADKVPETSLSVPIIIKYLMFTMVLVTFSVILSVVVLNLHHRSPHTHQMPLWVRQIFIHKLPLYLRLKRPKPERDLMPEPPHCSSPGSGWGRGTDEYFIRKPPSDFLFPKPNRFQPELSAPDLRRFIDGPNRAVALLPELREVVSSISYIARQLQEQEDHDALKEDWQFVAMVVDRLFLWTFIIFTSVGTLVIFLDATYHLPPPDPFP
# T2 sequence (Q07001 22-517): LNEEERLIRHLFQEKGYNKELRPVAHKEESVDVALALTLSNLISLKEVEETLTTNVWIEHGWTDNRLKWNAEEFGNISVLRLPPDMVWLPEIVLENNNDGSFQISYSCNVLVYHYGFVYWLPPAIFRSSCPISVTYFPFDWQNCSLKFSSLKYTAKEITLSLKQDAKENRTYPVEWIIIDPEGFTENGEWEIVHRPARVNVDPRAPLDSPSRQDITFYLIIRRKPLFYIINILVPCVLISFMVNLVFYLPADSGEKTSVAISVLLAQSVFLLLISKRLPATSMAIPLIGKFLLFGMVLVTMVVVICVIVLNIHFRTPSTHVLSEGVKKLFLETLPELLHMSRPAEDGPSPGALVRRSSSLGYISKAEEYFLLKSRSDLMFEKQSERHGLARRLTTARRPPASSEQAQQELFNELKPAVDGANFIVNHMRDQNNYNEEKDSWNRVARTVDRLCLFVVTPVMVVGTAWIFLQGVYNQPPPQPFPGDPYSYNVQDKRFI
# T2 sequence (P07510 23-517): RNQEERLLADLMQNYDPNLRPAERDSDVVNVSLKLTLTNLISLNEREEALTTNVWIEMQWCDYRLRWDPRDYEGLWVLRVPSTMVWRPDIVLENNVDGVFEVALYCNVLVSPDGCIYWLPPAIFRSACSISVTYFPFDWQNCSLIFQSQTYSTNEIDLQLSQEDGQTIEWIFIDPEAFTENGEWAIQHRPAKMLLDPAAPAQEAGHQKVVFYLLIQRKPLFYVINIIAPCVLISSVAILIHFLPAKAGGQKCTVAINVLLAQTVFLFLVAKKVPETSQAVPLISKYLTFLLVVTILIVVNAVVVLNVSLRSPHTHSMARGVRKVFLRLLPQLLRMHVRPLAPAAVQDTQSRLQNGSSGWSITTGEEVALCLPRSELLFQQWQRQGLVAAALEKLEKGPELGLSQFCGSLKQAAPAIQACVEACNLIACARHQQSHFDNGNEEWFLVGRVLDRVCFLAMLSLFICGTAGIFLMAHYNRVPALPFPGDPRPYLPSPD
# Procedure: as §1, with “muscle” for “ganglionic”, “muscle-type” for “ganglia-type”, “cause muscle” for “cause”, “effects” for “effects at ganglia”
compound,measurement,setting,value
2-(3-Pyridyloxy)ethylamine Hemigalactarate [Example 7],neurotransmitter release,Rat brain synaptosomes,30%
same,Ki,CNS nicotinic receptors,1600 nM
3-(3-Aminopropoxy)phenylamine Hemigalactarate [Example 29],neurotransmitter release,Rat brain synaptosomes,14%
same,Ki,CNS nicotinic receptors,442 nM
3-(3-Pyridyloxy)propylamine Hemigalactarate [Example 10],neurotransmitter release,Rat brain synaptosomes,0%
same,effect at ganglia sites,[1],0%
same,effect at muscle sites,[2],0%
3-(5-Chloro-3-pyridyloxy)propylamine Hemigalactarate [Example 15],neurotransmitter release,Rat brain synaptosomes,110%
same,Ki,CNS nicotinic receptors,46 nM
same,effect at ganglia sites,[1],4%
same,effect at muscle sites,[2],0%
4-(3-Pyridyloxy)butylamine Hemigalactarate [Example 12],neurotransmitter release,Rat brain synaptosomes,100%
same,Ki,CNS nicotinic receptors,232 nM
same,effect at ganglia sites,[1],11%
same,effect at muscle sites,[2],0%
"CN(C)CCOc1cccnc1 [Example 9, Dimethyl(2-(3-pyridyloxy)ethylamine Hemigalactarate]",neurotransmitter release,Rat brain synaptosomes,0%
same,effect at ganglia sites,[1],0%
same,effect at muscle sites,[2],0%
"CC(C)NCCCOc1cccnc1 [Example 23, (Methylethyl)(3-(3-pyridyloxy)propyl)amine]",neurotransmitter release,Rat brain synaptosomes,16%
same,Ki,CNS nicotinic receptors,8500 nM
"c1ccc(CNCCCOc2cccnc2)cc1 [Example 24, Benzyl(3-(3-pyridyloxy)propyl)amine]",neurotransmitter release,Rat brain synaptosomes,29%
"Cl.Cl.c1cncc(OC2CCNCC2)c1 [Example 35, 3-(4-Piperidinyloxy)pyridine Dihydrochloride]",effect at ganglia sites,[1],9%
same,melting point,,71 to 73.5 °C
same,effect at muscle sites,[2],16%
(2-(5-Bromo(3-pyridylthio))ethyl)methylamine Hemigalactarate [Example 38],Ki,CNS nicotinic receptors,3400 nM
(3-(3-Aminophenoxy)propyl)methylamine Hemigalactarate [Example 30],neurotransmitter release,Rat brain synaptosomes,30% and 60%
same,Ki,CNS nicotinic receptors,64 nM
same,effect at ganglia sites,[1],5%
same,effect at muscle sites,[2],11%
(3-(5-Bromo(3-pyridyloxy))propyl)methylamine Hemigalactarate [Example 6],Ki,CNS nicotinic receptors,44 nM
(3-(5-Chloro(3-pyridyloxy))-1-methylpropyl)methylamine Hemigalactarate [Example 27],neurotransmitter release,Rat brain synaptosomes,30%
same,Ki,CNS nicotinic receptors,1600 nM
(3-(5-Chloro(3-pyridyloxy))propyl)methylamine Hemigalactarate [Example 16],neurotransmitter release,Rat brain synaptosomes,100%
same,Ki,CNS nicotinic receptors,11 nM
same,effect at ganglia sites,[1],7%
same,effect at muscle sites,[2],16%
"(3-Benzo[3,4-d]1,3-dioxolan-5-yloxypropyl)methylamine Hemigalactarate [Example 34]",neurotransmitter release,Rat brain synaptosomes,41%
same,Ki,CNS nicotinic receptors,16600 nM
Cyclopropyl(3-(3-pyridyloxy)propyl)amine Hemigalactarate [Example 25],neurotransmitter release,Rat brain synaptosomes,51%
same,Ki,CNS nicotinic receptors,165 nM
same,effect at ganglia sites,[1],10%
same,effect at muscle sites,[2],9%
Dimethyl(3-(3-(methylamino)propoxy)phenyl)amine Hemigalactarate [Example 31],neurotransmitter release,Rat brain synaptosomes,16%
same,Ki,CNS nicotinic receptors,10000 nM
Dimethyl(3-(3-pyridyloxy)propyl)amine Hemigalactarate [Example 11],neurotransmitter release,Rat brain synaptosomes,32%
same,Ki,CNS nicotinic receptors,126 nM
same,effect at ganglia sites,[1],5%
same,effect at muscle sites,[2],8%
Dimethyl(4-(3-pyridyloxy)butyl)amine Hemigalactarate [Example 14],neurotransmitter release,Rat brain synaptosomes,24%
same,Ki,CNS nicotinic receptors,3410 nM
Ethyl(3-(3-pyridyloxy)propyl)amine Hemigalactarate [Example 22],neurotransmitter release,Rat brain synaptosomes,57%
same,Ki,CNS nicotinic receptors,66 nM
same,effect at ganglia sites,[1],13%
same,effect at muscle sites,[2],13%
Methyl(1-methyl-3-(3-pyridyloxy)propyl)amine Hemigalactarate [Example 26],neurotransmitter release,Rat brain synaptosomes,49%
same,Ki,CNS nicotinic receptors,138 nM
same,effect at ganglia sites,[1],20%
same,effect at muscle sites,[2],16%
Methyl(2-(3-pyridyloxy)ethyl)amine Hemigalactarate [Example 8],neurotransmitter release,Rat brain synaptosomes,143%
same,Ki,CNS nicotinic receptors,65 nM
same,effect at ganglia sites,[1],0%
same,effect at muscle sites,[2],0%
Methyl(3-(2-methyl(3-pyridyloxy))propyl)amine Hemigalactarate [Example 21],neurotransmitter release,Rat brain synaptosomes,69%
same,Ki,CNS nicotinic receptors,236 nM
same,effect at ganglia sites,[1],15%
same,effect at muscle sites,[2],0%
Methyl(3-(3-nitrophenoxy)propyl)amine Hemigalactarate [Example 28],neurotransmitter release,Rat brain synaptosomes,67%
same,Ki,CNS nicotinic receptors,392 nM
same,effect at ganglia sites,[1],9%
same,effect at muscle sites,[2],10%
Methyl(3-(5-(phenylmethoxy)(3-pyridyloxy))propyl)amine Hemigalactarate [Example 19],neurotransmitter release,Rat brain synaptosomes,38%
same,Ki,CNS nicotinic receptors,2 nM
same,effect at ganglia sites,[1],3%
same,effect at muscle sites,[2],1%
Methyl(3-(5-isopropoxy-3-pyridyloxy)propyl)amine Monogalactarate [Example 18],neurotransmitter release,Rat brain synaptosomes,36%
same,Ki,CNS nicotinic receptors,21 nM
same,effect at ganglia sites,[1],0%
same,effect at muscle sites,[2],22%
Methyl(3-(5-methoxy-3-pyridyloxy)propyl)amine Hemigalactarate [Example 17],neurotransmitter release,Rat brain synaptosomes,54%
same,Ki,CNS nicotinic receptors,15 nM
same,effect at ganglia sites,[1],5%
same,effect at muscle sites,[2],10%
Methyl(3-(6-methyl(3-pyridyloxy))propyl)amine Hemigalactarate [Example 20],neurotransmitter release,Rat brain synaptosomes,77%
same,Ki,CNS nicotinic receptors,12 nM
same,effect at muscle sites,[2],0%
"Methyl(3-tricyclo[7.3.1.0<5,13>]tridec-2-yloxypropyl)amine Hemigalactarate [Example 32]",Ki,CNS nicotinic receptors,100000 nM
Methyl(4-(3-pyridyloxy)butyl)amine Hemigalactarate [Example 13],neurotransmitter release,Rat brain synaptosomes,56%
same,Ki,CNS nicotinic receptors,5520 nM
